Source: US20140094424A1, “MICROBICIDAL COMPOSITIONS AND METHODS OF PRODUCTION USE THEREOF” (priority 2011, published 2014)

Columns and labels:
[1] = test system: Pseudomonas aeruginosa (L); test: MBC (minimum bactericidal concentration) test in Wash NEXT reagent; format: cell-based
Procedure: (§1) The stock organisms were thawed and subbed prior to beginning the MBC test. Molds were subbed to SDA plates one week before, and the bacteria were subbed to TAT agar plates 24 hours prior to the start of the test. All plates were incubated at 32 degrees C.
(§2) Each bacterial organism was inoculated into 40 ml sterile saline in a centrifuge tube to create a density of MacFarland #1. Two serial dilutions of 1:100 were then made, resulting in 10^−2 and 10^−4 concentrations. Each dilution was vortexed before it was sampled, and sterile Eppendorf pipette tips were used to make each transfer. The 10^−4 dilution was spiral plated to yield the initial inoculum concentration.
(§3) MBC trays were set up with the prepared test reagent. Using a Matrix pipettor, 100 μl aliquots of reagent were distributed into the wells, diluting the amount of preservative from 100% to 10% increments, using unpreserved reagent as the diluent. In one row, 100% non-preserved reagent acted as a positive control and served as a benchmark for a full mat of growth. In well #12H, 100 μl unpreserved reagent was pipetted, and this well was not inoculated with organisms, as it served as the negative control. Once all of the trays were prepared, the prepared bacteria/mold suspensions were poured into the MBC inoculating trays. These were placed onto the reagent trays, and 0.01 ml inoculum was introduced into the 100 μl of reagent in each well.
(§4) This was done by dipping a sterile cotton swab into each well, and absorbing all of the liquid in the well. The swab was rolled onto a TAT agar plate ensuring that the entire swab touches the agar. Plates ware incubated at 32 degrees C. for 48 hours to 7 days, depending on the organism. Observations for growth were performed by a scoring matrix using + for a full mat, +/− for some growth, a numerical value for an actual colony count, and—for no growth.
(§5) Below are tables that contain the data obtained in Example 1. The MBC test is scored by (+) indicating a full grown mat of organisms, equivalent to the organisms in the unpreserved reagent. (+/−) indicates there is some kill evident disturbing that mat or bringing the quantities down to an almost countable level. An actual number is the actual number of colonies growing at that concentration of preservative. (−) indicates no growth found. The MBC trays were stored at room temperature for the entire test.
(§6) The materials and methods and analysis of the MBC test were the same as in Example 1.

[2] = test system: Penicillium notatum-KMO (R); test: as above; format: cell-based; set-up: key to MBC test growth score: number = actual colony count; + full mat, − no growth
Procedure: as §1
as §2, with “For the molds, each” for “Each bacterial”, “#5.” for “#1.”
as §3, §4, §5, §6

## gentamicin
[1]; 10% preservative, 8 hour
  MBC test growth score: +
[1]; 10% preservative, 24 hour
  MBC test growth score: +
[1]; 10% preservative, 48 hour
  MBC test growth score: +/−
[1]; 10% preservative, 72 hour
  MBC test growth score: 8
[1]; 20% preservative, 8 hour
  MBC test growth score: +
[1]; 20% preservative, 24 hour
  MBC test growth score: +
[1]; 20% preservative, 48 hour
  MBC test growth score: +/−
[1]; 20% preservative, 72 hour
  MBC test growth score: 4
[1]; 30% preservative, 8 hour
  MBC test growth score: +
[1]; 30% preservative, 24 hour
  MBC test growth score: +/−
[1]; 30% preservative, 48 hour
  MBC test growth score: +/−
[1]; 30% preservative, 72 hour
  MBC test growth score: 2
[1]; 40% preservative, 8 hour
  MBC test growth score: +
[1]; 40% preservative, 24 hour
  MBC test growth score: +/−
[1]; 40% preservative, 48 hour
  MBC test growth score: +/−
[1]; 40% preservative, 72 hour
  MBC test growth score: 1
[1]; 50% preservative, 8 hour
  MBC test growth score: +
[1]; 50% preservative, 24 hour
  MBC test growth score: +/−
[1]; 50% preservative, 48 hour
  MBC test growth score: +/−
[1]; 50% preservative, 72 hour
  MBC test growth score: −
[1]; 60% preservative, 8 hour
  MBC test growth score: +/−
[1]; 60% preservative, 24 hour
  MBC test growth score: +/−
[1]; 60% preservative, 48 hour
  MBC test growth score: +/−
[1]; 60% preservative, 72 hour
  MBC test growth score: −
[1]; 70% preservative, 8 hour
  MBC test growth score: +/−
[1]; 70% preservative, 24 hour
  MBC test growth score: +/−
[1]; 70% preservative, 48 hour
  MBC test growth score: +/−
[1]; 70% preservative, 72 hour
  MBC test growth score: −
[1]; 80% preservative, 8 hour
  MBC test growth score: +/−
[1]; 80% preservative, 24 hour
  MBC test growth score: +/−
[1]; 80% preservative, 48 hour
  MBC test growth score: +/−
[1]; 80% preservative, 72 hour
  MBC test growth score: −
[1]; 90% preservative, 8 hour
  MBC test growth score: +/−
[1]; 90% preservative, 24 hour
  MBC test growth score: +/−
[1]; 90% preservative, 48 hour
  MBC test growth score: −
[1]; 90% preservative, 72 hour
  MBC test growth score: −
[1]; 100% preservative, 8 hour
  MBC test growth score: +/−
[1]; 100% preservative, 24 hour
  MBC test growth score: +/−
[1]; 100% preservative, 48 hour
  MBC test growth score: −
[1]; 100% preservative, 72 hour
  MBC test growth score: −
[2]; 10% preservative, 8 hour
  MBC test growth score: +
[2]; 10% preservative, 24 hour
  MBC test growth score: +
[2]; 10% preservative, 48 hour
  MBC test growth score: +/−
[2]; 10% preservative, 72 hour
  MBC test growth score: +/−
[2]; 10% preservative, 7 day
  MBC test growth score: +/−
[2]; 10% preservative, 14 day
  MBC test growth score: +/−
[2]; 20% preservative, 8 hour
  MBC test growth score: +
[2]; 20% preservative, 24 hour
  MBC test growth score: +
[2]; 20% preservative, 48 hour
  MBC test growth score: +/−
[2]; 20% preservative, 72 hour
  MBC test growth score: +/−
[2]; 20% preservative, 7 day
  MBC test growth score: +/−
[2]; 20% preservative, 14 day
  MBC test growth score: +/−
[2]; 30% preservative, 8 hour
  MBC test growth score: +
[2]; 30% preservative, 24 hour
  MBC test growth score: +
[2]; 30% preservative, 48 hour
  MBC test growth score: +/−
[2]; 30% preservative, 72 hour
  MBC test growth score: +/−
[2]; 30% preservative, 7 day
  MBC test growth score: +/−
[2]; 30% preservative, 14 day
  MBC test growth score: +/−
[2]; 40% preservative, 8 hour
  MBC test growth score: +
[2]; 40% preservative, 24 hour
  MBC test growth score: +
[2]; 40% preservative, 48 hour
  MBC test growth score: +/−
[2]; 40% preservative, 72 hour
  MBC test growth score: +/−
[2]; 40% preservative, 7 day
  MBC test growth score: +/−
[2]; 40% preservative, 14 day
  MBC test growth score: 28
[2]; 50% preservative, 8 hour
  MBC test growth score: +
[2]; 50% preservative, 24 hour
  MBC test growth score: +
[2]; 50% preservative, 48 hour
  MBC test growth score: +/−
[2]; 50% preservative, 72 hour
  MBC test growth score: +/−
[2]; 50% preservative, 7 day
  MBC test growth score: +/−
[2]; 50% preservative, 14 day
  MBC test growth score: 25
[2]; 60% preservative, 8 hour
  MBC test growth score: +
[2]; 60% preservative, 24 hour
  MBC test growth score: +
[2]; 60% preservative, 48 hour
  MBC test growth score: +/−
[2]; 60% preservative, 72 hour
  MBC test growth score: +/−
[2]; 60% preservative, 7 day
  MBC test growth score: +/−
[2]; 60% preservative, 14 day
  MBC test growth score: 23
[2]; 70% preservative, 8 hour
  MBC test growth score: +
[2]; 70% preservative, 24 hour
  MBC test growth score: +
[2]; 70% preservative, 48 hour
  MBC test growth score: +/−
[2]; 70% preservative, 72 hour
  MBC test growth score: +/−
[2]; 70% preservative, 7 day
  MBC test growth score: 23
[2]; 70% preservative, 14 day
  MBC test growth score: 18
[2]; 80% preservative, 8 hour
  MBC test growth score: +
[2]; 80% preservative, 24 hour
  MBC test growth score: +
[2]; 80% preservative, 48 hour
  MBC test growth score: +/−
[2]; 80% preservative, 72 hour
  MBC test growth score: +/−
[2]; 80% preservative, 7 day
  MBC test growth score: 16
[2]; 80% preservative, 14 day
  MBC test growth score: 12
[2]; 90% preservative, 8 hour
  MBC test growth score: +
[2]; 90% preservative, 24 hour
  MBC test growth score: +
[2]; 90% preservative, 48 hour
  MBC test growth score: +/−
[2]; 90% preservative, 72 hour
  MBC test growth score: +/−
[2]; 90% preservative, 7 day
  MBC test growth score: 11
[2]; 90% preservative, 14 day
  MBC test growth score: 9
[2]; 100% preservative, 8 hour
  MBC test growth score: +
[2]; 100% preservative, 24 hour
  MBC test growth score: +
[2]; 100% preservative, 48 hour
  MBC test growth score: +/−
[2]; 100% preservative, 72 hour
  MBC test growth score: +/−
[2]; 100% preservative, 7 day
  MBC test growth score: 7
[2]; 100% preservative, 14 day
  MBC test growth score: 6
